Reference: PubChem BioAssay (NCI)
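Step 1: Grow cells in 96-well plates. Step 2: Expose to compound for 48 hours at 5 concentrations. Step 3: Interpolate endpoints linearly; if unreached, use highest concentration. TGI is the concentration that stops growth completely.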

Tested on: HCT-15 colon
Test: NCI tumour cell line growth inhibition, 48 h

Structure (SMILES)	TGI
COc1ccc(-c2onc(-c3ccc([N+](=O)[O-])cc3)c2C2=NCCN2)cc1	> 100 µM
Cc1cc(Cl)ccc1NC(=O)CCCC(=O)C1CCCC1=O (configuration not stated)	> 100 µM
COc1ccc(NC(=O)C(=O)C(C(=O)c2ccccc2)C2OC(=O)c3ccccc32)c([N+](=O)[O-])c1 (configuration not stated)	> 100 µM
O=C(Nc1ccc(Cl)cc1)C(=O)C(C(=O)c1ccccc1-c1ccccc1)C1OC(=O)c2ccccc21 (configuration not stated)	37.3 µM

Tested on: SK-MEL-28 melanoma
Test: NCI tumour cell line growth inhibition, 48 h

Structure (SMILES)	TGI
COc1c2nc(CCl)[nH]c(=O)c2c(OC)c2nc(CCl)[nH]c(=O)c12	> 100 µM
COc1ccccc1N1C(=O)/C(=C/c2ccc(N(CCC#N)CCC#N)cc2C)N=C1c1cc([N+](=O)[O-])ccc1Cl	> 100 µM
CCCCCCCCC[C@@H]1CC(=O)OCC2OC(O[C@H](CCCCCCCCC)CC(=O)OCC3OC(O[C@H](CCCCCCCCC)CC(=O)OCC4OC(O1)C(O)C(O)C4O)C(O)C(O)C3O)C(O)C(O)C2O (some centres not stated)	18.6 µM
COc1ccc(-c2onc(-c3ccc([N+](=O)[O-])cc3)c2C2=NCCN2)cc1	> 100 µM
COc1ccc(NC(=O)C(=O)C(C(=O)c2ccccc2)C2OC(=O)c3ccccc32)c([N+](=O)[O-])c1 (configuration not stated)	> 100 µM
O=C(Nc1ccc(Cl)cc1)C(=O)C(C(=O)c1ccccc1-c1ccccc1)C1OC(=O)c2ccccc21 (configuration not stated)	36.6 µM

Tested on: LOX IMVI melanoma
Test: NCI tumour cell line growth inhibition, 48 h

Structure (SMILES)	TGI
COc1c2nc(CCl)[nH]c(=O)c2c(OC)c2nc(CCl)[nH]c(=O)c12	> 100 µM
CCCCCCCCC[C@@H]1CC(=O)OCC2OC(O[C@H](CCCCCCCCC)CC(=O)OCC3OC(O[C@H](CCCCCCCCC)CC(=O)OCC4OC(O1)C(O)C(O)C4O)C(O)C(O)C3O)C(O)C(O)C2O (some centres not stated)	11.7 µM
COc1ccc(-c2onc(-c3ccc([N+](=O)[O-])cc3)c2C2=NCCN2)cc1	> 100 µM
Cc1cc(Cl)ccc1NC(=O)CCCC(=O)C1CCCC1=O (configuration not stated)	> 100 µM
COc1ccc(NC(=O)C(=O)C(C(=O)c2ccccc2)C2OC(=O)c3ccccc32)c([N+](=O)[O-])c1 (configuration not stated)	> 100 µM
O=C(Nc1ccc(Cl)cc1)C(=O)C(C(=O)c1ccccc1-c1ccccc1)C1OC(=O)c2ccccc21 (configuration not stated)	36 µM

Tested on: HOP-62 NSCLC
Test: NCI tumour cell line growth inhibition, 48 h

Structure (SMILES)	TGI
COc1c2nc(CCl)[nH]c(=O)c2c(OC)c2nc(CCl)[nH]c(=O)c12	> 100 µM
COc1ccccc1N1C(=O)/C(=C/c2ccc(N(CCC#N)CCC#N)cc2C)N=C1c1cc([N+](=O)[O-])ccc1Cl	> 100 µM
CCCCCCCCC[C@@H]1CC(=O)OCC2OC(O[C@H](CCCCCCCCC)CC(=O)OCC3OC(O[C@H](CCCCCCCCC)CC(=O)OCC4OC(O1)C(O)C(O)C4O)C(O)C(O)C3O)C(O)C(O)C2O (some centres not stated)	26.1 µM
COc1ccc(-c2onc(-c3ccc([N+](=O)[O-])cc3)c2C2=NCCN2)cc1	> 100 µM
COc1ccc(NC(=O)C(=O)C(C(=O)c2ccccc2)C2OC(=O)c3ccccc32)c([N+](=O)[O-])c1 (configuration not stated)	> 100 µM
O=C(Nc1ccc(Cl)cc1)C(=O)C(C(=O)c1ccccc1-c1ccccc1)C1OC(=O)c2ccccc21 (configuration not stated)	> 100 µM

Tested on: CCRF-CEM leukemia
Test: NCI tumour cell line growth inhibition, 48 h

Structure (SMILES)	TGI
COc1c2nc(CCl)[nH]c(=O)c2c(OC)c2nc(CCl)[nH]c(=O)c12	> 100 µM
COc1ccccc1N1C(=O)/C(=C/c2ccc(N(CCC#N)CCC#N)cc2C)N=C1c1cc([N+](=O)[O-])ccc1Cl	> 100 µM
CCCCCCCCC[C@@H]1CC(=O)OCC2OC(O[C@H](CCCCCCCCC)CC(=O)OCC3OC(O[C@H](CCCCCCCCC)CC(=O)OCC4OC(O1)C(O)C(O)C4O)C(O)C(O)C3O)C(O)C(O)C2O (some centres not stated)	19.4 µM
COc1ccc(-c2onc(-c3ccc([N+](=O)[O-])cc3)c2C2=NCCN2)cc1	> 100 µM
Cc1cc(Cl)ccc1NC(=O)CCCC(=O)C1CCCC1=O (configuration not stated)	> 100 µM
COc1ccc(NC(=O)C(=O)C(C(=O)c2ccccc2)C2OC(=O)c3ccccc32)c([N+](=O)[O-])c1 (configuration not stated)	> 100 µM
O=C(Nc1ccc(Cl)cc1)C(=O)C(C(=O)c1ccccc1-c1ccccc1)C1OC(=O)c2ccccc21 (configuration not stated)	58 µM

Tested on: U251 CNS
Test: NCI tumour cell line growth inhibition, 48 h

Structure (SMILES)	TGI
COc1c2nc(CCl)[nH]c(=O)c2c(OC)c2nc(CCl)[nH]c(=O)c12	> 100 µM
COc1ccccc1N1C(=O)/C(=C/c2ccc(N(CCC#N)CCC#N)cc2C)N=C1c1cc([N+](=O)[O-])ccc1Cl	> 100 µM
CCCCCCCCC[C@@H]1CC(=O)OCC2OC(O[C@H](CCCCCCCCC)CC(=O)OCC3OC(O[C@H](CCCCCCCCC)CC(=O)OCC4OC(O1)C(O)C(O)C4O)C(O)C(O)C3O)C(O)C(O)C2O (some centres not stated)	21.4 µM
COc1ccc(-c2onc(-c3ccc([N+](=O)[O-])cc3)c2C2=NCCN2)cc1	> 100 µM
Cc1cc(Cl)ccc1NC(=O)CCCC(=O)C1CCCC1=O (configuration not stated)	> 100 µM
COc1ccc(NC(=O)C(=O)C(C(=O)c2ccccc2)C2OC(=O)c3ccccc32)c([N+](=O)[O-])c1 (configuration not stated)	> 100 µM
O=C(Nc1ccc(Cl)cc1)C(=O)C(C(=O)c1ccccc1-c1ccccc1)C1OC(=O)c2ccccc21 (configuration not stated)	27.8 µM

Tested on: HOP-18 NSCLC
Test: NCI tumour cell line growth inhibition, 48 h

Structure (SMILES)	TGI
COc1c2nc(CCl)[nH]c(=O)c2c(OC)c2nc(CCl)[nH]c(=O)c12	> 100 µM
COc1ccccc1N1C(=O)/C(=C/c2ccc(N(CCC#N)CCC#N)cc2C)N=C1c1cc([N+](=O)[O-])ccc1Cl	> 100 µM
CCCCCCCCC[C@@H]1CC(=O)OCC2OC(O[C@H](CCCCCCCCC)CC(=O)OCC3OC(O[C@H](CCCCCCCCC)CC(=O)OCC4OC(O1)C(O)C(O)C4O)C(O)C(O)C3O)C(O)C(O)C2O (some centres not stated)	0.0797 µM
COc1ccc(-c2onc(-c3ccc([N+](=O)[O-])cc3)c2C2=NCCN2)cc1	> 100 µM
Cc1cc(Cl)ccc1NC(=O)CCCC(=O)C1CCCC1=O (configuration not stated)	> 100 µM
COc1ccc(NC(=O)C(=O)C(C(=O)c2ccccc2)C2OC(=O)c3ccccc32)c([N+](=O)[O-])c1 (configuration not stated)	> 100 µM

Tested on: ACHN renal
Test: NCI tumour cell line growth inhibition, 48 h

Structure (SMILES)	TGI
COc1c2nc(CCl)[nH]c(=O)c2c(OC)c2nc(CCl)[nH]c(=O)c12	> 100 µM
COc1ccccc1N1C(=O)/C(=C/c2ccc(N(CCC#N)CCC#N)cc2C)N=C1c1cc([N+](=O)[O-])ccc1Cl	> 100 µM
CCCCCCCCC[C@@H]1CC(=O)OCC2OC(O[C@H](CCCCCCCCC)CC(=O)OCC3OC(O[C@H](CCCCCCCCC)CC(=O)OCC4OC(O1)C(O)C(O)C4O)C(O)C(O)C3O)C(O)C(O)C2O (some centres not stated)	26.1 µM
COc1ccc(-c2onc(-c3ccc([N+](=O)[O-])cc3)c2C2=NCCN2)cc1	> 100 µM
Cc1cc(Cl)ccc1NC(=O)CCCC(=O)C1CCCC1=O (configuration not stated)	> 100 µM
